PMC6272970 (Molecules, 2016)
Values after ≈ are worked out from the molar mass of the structure shown.

What was measured:
[1] = design: method as in PMID 25030991; conditions: rat plasma; 2.5 mg/kg sublingual vein administration; cited from earlier work
[2] = design: method as in PMID 11151743; conditions: healthy volunteers, various dose levels; quercetin glucuronides and/or sulfates measured; cited from earlier work
[3] = Solubility trials of rutin in water, ethanol, methanol and NADES, quantified by HPLC-DAD; assay type: physicochemical; conditions: 22 °C
Procedure: Samples were stirred on a magnetic stirrer (Stuart, Bibby Scientific Ltd., Stone, Staffordshire, UK) for one hour at room temperature and centrifuged for 21 min at 13,000 rpm with Eppendorf 5415 R centrifuge The time of one-hour stirring was chosen because it was sufficient for all the prepared mixtures to reach maximum concentration of rutin. […] Calibration curve was obtained injecting standard solution at different concentrations namely (50, 25, 10, 5 and 1 μg/mL) Calibration curve was as follows y = 17.832 x + 9.7822 (R^2 was 0.9998). Limit of Quantification was 1 μg/mL. For HPLC-DAD a series 1260 HPLC instrument (Agilent, Cernusco Sul Naviglio (MI), Italy) equipped with a quaternary pump, a diode-array detector, an auto sampler and a column oven compartment was used. Analyses were performed on Eclipse XDB C8 column (5 μm, 4.6 mm × 150 mm, Agilent). The mobile phase was (A) water-formic acid (99.9:0.1, v/v) and (B) acetonitrile. A gradient program was used as follows: [0 → 10[…] (60:40) 10 → 11[…] (0:100) 11 → 12[…] (0:100) 12 → 13[…] (90:10) 13 → 14[…] (90:10)]. The mobile phase flow rate was 1.2 mL/min and the injection volume was 10 μL. The chromatogram was recorded at 350 nm and spectral data for all peaks were obtained in the range of 190-400 nm. The retention time of rutin in the analysis conditions was 3.8 min.

In the case of C[C@@H]1O[C@@H](OC[C@H]2O[C@@H](Oc3c(-c4ccc(O)c(O)c4)oc4cc(O)cc(O)c4c3=O)[C@H](O)[C@@H](O)[C@@H]2O)[C@H](O)[C@H](O)[C@H]1O [rutin], the maximum concentration [1] is given as 1659 ng/mL, the “time of maximum concentration” value [1] is given as 5 min and the “rutin in plasma after oral dosing” value [2] is given as “no rutin was detectable”. For the same compound, the solubility at 1 h ([3]; Citric Acid–Fructose 1:1 (NADES mixture 7), organic solvent or mixture, thermodynamic from solid, solvent mixture 7 Citric Acid–Fructose 1:1) was 0.205 ± 0.0051 mg/mL (≈ 336 µM), the solubility at 1 h ([3]; Glucose–Citric Acid–Water 1:1:1 (NADES mixture 9), solvent mixture 9 Glucose–Citric Acid–Water 1:1:1) was 0.175 ± 0.0037 mg/mL (≈ 287 µM) and the solubility at 1 h ([3]; Glucose–Fructose–Sorbitol 1:1:1 (NADES mixture 6), organic solvent or mixture, thermodynamic from solid, solvent mixture 6 Glucose–Fructose–Sorbitol 1:1:1) was 0.0908 ± 0.0019 mg/mL (≈ 149 µM). It also gave a solubility at 1 h ([3]; Glucose–Fructose–Water 1:1:1 (NADES mixture 5), organic solvent or mixture, thermodynamic from solid, solvent mixture 5 Glucose–Fructose–Water 1:1:1) of 0.0819 ± 0.0025 mg/mL (≈ 134 µM), a solubility at 1 h ([3]; Proline–Glutamic Acid 1:1 (NADES mixture 10), solvent mixture 10 Proline–Glutamic Acid 1:1) of 2.26 ± 0.0634 mg/mL (≈ 3700 µM) and a solubility at 1 h ([3]; Proline–Glutamic Acid 2:1 (NADES mixture 11), organic solvent or mixture, thermodynamic from solid, solvent mixture 11 Proline–Glutamic Acid 2:1) of 2.94 ± 0.118 mg/mL (≈ 4810 µM). For the same compound, the solubility at 1 h ([3]; Tartaric Acid–Fructose 1:1 (NADES mixture 8), organic solvent or mixture, thermodynamic from solid, solvent mixture 8 Tartaric Acid–Fructose 1:1) was 0.504 ± 0.0164 mg/mL (≈ 826 µM), the solubility at 1 h ([3]; ethanol, solvent Ethanol, mean ± SD of 3) was 2.37 ± 0.0932 mg/mL (≈ 3880 µM) and the solubility at 1 h ([3]; methanol, solvent Methanol, mean ± SD of 3) was 2.05 ± 0.0897 mg/mL (≈ 3360 µM). The solubility at 1 h ([3]; natural deep eutectic solvent (NADES), organic solvent or mixture, thermodynamic from solid, solvent mixture 1 Urea–Glucose–Citric Acid 1:1:1) was 0.379 ± 0.0085 mg/mL (≈ 620 µM), the solubility at 1 h ([3]; natural deep eutectic solvent (NADES), organic solvent or mixture, thermodynamic from solid, solvent mixture 2 Urea–Glucose–Fructose 1:1:1) was 0.961 ± 0.0306 mg/mL (≈ 1570 µM) and the solubility at 1 h ([3]; natural deep eutectic solvent (NADES), organic solvent or mixture, thermodynamic from solid, solvent mixture 3 Urea–Tartaric Acid 1:1) was 0.68 ± 0.019 mg/mL (≈ 1110 µM). The solubility at 1 h ([3]; natural deep eutectic solvent (NADES), organic solvent or mixture, thermodynamic from solid, solvent mixture 4 Urea–Choline chloride 1:1) was 1.88 ± 0.0481 mg/mL (≈ 3080 µM), the solubility at 1 h ([3]; natural deep eutectic solvent (NADES), organic solvent or mixture, thermodynamic from solid, solvent mixture 12 Proline–Oxalic Acid 1:1) was 0.749 ± 0.0225 mg/mL (≈ 1230 µM) and the solubility at 1 h ([3]; natural deep eutectic solvent (NADES), organic solvent or mixture, thermodynamic from solid, solvent mixture 14 Ornitine–Tartaric Acid 1:1) was 0.21 ± 0.0057 mg/mL (≈ 343 µM). The solubility at 1 h ([3]; natural deep eutectic solvent (NADES), organic solvent or mixture, thermodynamic from solid, solvent mixture 15 Arginine–Tartaric Acid 1:1) was 0.363 ± 0.0112 mg/mL (≈ 594 µM), the solubility at 1 h ([3]; natural deep eutectic solvent (NADES), organic solvent or mixture, thermodynamic from solid, solvent mixture 16 Citrulline–Tartaric Acid 1.1) was 0.37 ± 0.0131 mg/mL (≈ 607 µM) and the solubility at 1 h ([3]; natural deep eutectic solvent (NADES), organic solvent or mixture, thermodynamic from solid, solvent mixture 17 Arginine–Oxalic Acid 1:1) was 0.414 ± 0.0136 mg/mL (≈ 679 µM). For the same compound, the solubility at 1 h ([3]; natural deep eutectic solvent (NADES), organic solvent or mixture, thermodynamic from solid, solvent mixture 18 Proline–Malic Acid 1:1) was 0.9 ± 0.0311 mg/mL (≈ 1470 µM), the solubility at 1 h ([3]; natural deep eutectic solvent (NADES), organic solvent or mixture, thermodynamic from solid, solvent mixture 19 Arginin–Malic Acid 1:1) was 0.457 ± 0.0178 mg/mL (≈ 749 µM) and the solubility at 1 h ([3]; natural deep eutectic solvent (NADES), organic solvent or mixture, thermodynamic from solid, solvent mixture 20 Ornitine–Malic Acid 1:1) was 0.408 ± 0.0148 mg/mL (≈ 668 µM). The solubility at 1 h ([3]; natural deep eutectic solvent (NADES), organic solvent or mixture, thermodynamic from solid, solvent mixture 21 Citrulline–Malic Acid 1:1) was 0.455 ± 0.0185 mg/mL (≈ 744 µM), the solubility at 1 h ([3]; natural deep eutectic solvent (NADES), organic solvent or mixture, thermodynamic from solid, solvent mixture 22 Proline–Citric Acid 1:1) was 0.672 ± 0.0262 mg/mL (≈ 1100 µM) and the solubility at 1 h ([3]; natural deep eutectic solvent (NADES), organic solvent or mixture, thermodynamic from solid, solvent mixture 23 Arginine–Citric Acid 1:1) was 0.414 ± 0.0133 mg/mL (≈ 679 µM). The solubility at 1 h ([3]; natural deep eutectic solvent (NADES), organic solvent or mixture, thermodynamic from solid, solvent mixture 24 Ornitine–Citric Acid1:1) was 0.425 ± 0.0172 mg/mL (≈ 696 µM), the solubility at 1 h ([3]; natural deep eutectic solvent (NADES), organic solvent or mixture, thermodynamic from solid, solvent mixture 25 Citrulline–Citric Acid 1:1) was 0.46 ± 0.0144 mg/mL (≈ 753 µM) and the solubility at 1 h ([3]; natural deep eutectic solvent (NADES), organic solvent or mixture, thermodynamic from solid, solvent mixture 26 Proline–Glucose1:1) was 0.879 ± 0.0313 mg/mL (≈ 1440 µM). The solubility at 1 h ([3]; natural deep eutectic solvent (NADES), organic solvent or mixture, thermodynamic from solid, solvent mixture 27 Proline–Fructose 1:1) was 1.56 ± 0.0438 mg/mL (≈ 2560 µM), the solubility at 1 h ([3]; natural deep eutectic solvent (NADES), organic solvent or mixture, thermodynamic from solid, solvent mixture 28 Proline–Choline Chloride 1:2) was 2.64 ± 0.101 mg/mL (≈ 4330 µM) and the solubility at 1 h ([3]; natural deep eutectic solvent (NADES), organic solvent or mixture, thermodynamic from solid, solvent mixture 29 Proline–Choline Chloride 1:3) was 2.8 ± 0.103 mg/mL (≈ 4580 µM). For the same compound, the solubility at 1 h ([3]; natural deep eutectic solvent (NADES), organic solvent or mixture, thermodynamic from solid, solvent mixture 30 Choline Chloride–Malic Acid 1:1) was 0.702 ± 0.0223 mg/mL (≈ 1150 µM) and the solubility at 1 h ([3]; water, solvent Water, mean ± SD of 3) was 0.12 ± 0.0049 mg/mL (≈ 197 µM).
